In US9193697B2, “Oxazole derivatives useful as modulators of FAAH” (MERCK SHARP & DOHME CORP., priority 2010, dated 2015):

Legend:
[1] = molecular target: T1, human FAAH (Fatty Acid Amide Hydrolase) (Homo sapiens (Human), UniProt O00519); test: FAAH inhibition, human FAAH CHO cell lysate (AAMCA fluorescence); type: biochemical
Source text: (§1) To assist in assay development stable cell lines for human, murine and rat full length FAAH were developed. […] The full length FAAH was subcloned into the mammalian expression vector, pcDEF.neo, using XbaI and EcoRI restriction sites and used for stable cell line generation.
(§2) The full length murine FAAH was subcloned into the mammalian expression vector, pcDEFneo using either EcoRI (murine) or KpnI and EcoRI (rat) restriction sites. Chinese hamster ovary cells (CHO) were transfected following manufacturers protocol (AMAXA). Forty eight hours post transfection, cells were trypsinized and transferred to 96 well plates in Iscove's DMEM media supplemented with 2 mM Glutamine, 10% fetal calf serum, 1 mg/ml geneticin and HT Supplement (0.1 mM sodium hypoxanthine, 0.016 mM thymidine) in order to isolate single clones. […] Following removal of tissue culture media cells were dislodged following addition of Cellstripper (Mediatech, Inc. Manassas, Va.) and transferred to 96 well black clear bottom assay plate, centrifuged at 1,000 rpm for 3 mins and media removed and replaced with assay buffer (50 mM Tris pH8.0, 1 mM EDTA, 0.1% fatty acid free BSA). The reaction was initiated by addition of fluorescent substrate, AMC Arachidonoyl Amide (Cayman Chemical, Ann Arbor, Mich.) to 1 μM and reaction allowed to proceed for 2 hours at room temperature. Release of fluorescence was monitored in a CytoFluor Multiplate Reader.
CHO cells expressing FAAH were used to prepare either crude cell lysate or microsome fractions. To harvest cells, tissue culture media was decanted, the monolayer washed three times with Ca^++Mg^++ free PBS and cells recovered after 15 min in enzyme free dissociation media (Millipore Corp, Billerica, Mass.). Cells were collected by centrifuging at 2000 rpm for 15 min, and the cell pellet re-suspended with 50 mM HEPES (pH 7.4) containing 1 mM EDTA and the protease inhibitors aprotinin (1 mg/ml) and leupeptin (100 μM). The suspension was sonicated at 4° C. and the cell lysate recovered after centrifuging at 12,000×g (14,600 rpm, SS34 rotor) for 20 min at 4° C. to form a crude pellet of cell debris, nuclei, peroxisomes, lysosomes, and mitochondria; the supernatant or cell lysate was used for FAAH enzyme assay. In some eases, microsomes fractions enriched in FAAH were prepared by centrifuging the cell lysate further at 27,000 rpm (100,000×g) in SW28 rotor for 50 minutes at 4° C. The pellet containing FAAH-enriched microsomes was re-suspend in 50 mM HEPES, (pH 7.4) 1 mM EDTA, and any remaining DNA sheared by passage of material through a 23 gauge needle and aliquots of enzyme were store at −80° C. prior to use.
(§3) Assays are performed on either cell lysate or microsome fractions prepared as described or in whole cell format employing either the fluorescent substrate AAMCA (Cayman chemical, Ann Arbor, Mich.,) or ^3H-anandamide ([ETHANOLAMINE-1-3H] American Radiolabeled Chemicals; 1 mCi/ml). […] AAMCA substrate was used to achieve a final concentration of 1 μM and reaction allowed to proceed at room temperature for 1-3 hours. […] Whole cell assay is conducted with cells harvested after rinsing tissue culture flasks three times with Ca^++Mg^++ free PBS, incubating for 10 min in Enzyme free dissociation media and centrifuging for 5 minutes at 1,000 rpm in table top centrifuge. Cells are resuspended in assay buffer at desired cell number in (4×10^4 cells/assay in 96-well format; 1×10^4 cells/assay in 384-well format) and assayed as described.
Alternatively, assays are performed using anandamide [ethanolamine 1-^3H] (specific activity of 10 Ci/mmol) diluted with cold anandamide to achieve a final assay concentration of 1 μM anandamide (˜50,000 cpm). Enzyme (CHO cell lysate, brain or liver homogenate) is incubated in assay buffer (50 mM Phosphate, pH 8.0, 1 mM EDTA, 200 mM KCl, 0.2% glycerol, 0.1% fatty acid free BSA) with inhibitor at 25° C. for 30 minutes.

[2] = molecular target: T1, human FAAH (Fatty Acid Amide Hydrolase); test: FAAH inhibition, human FAAH CHO whole cell format; type: cell-based
Source text: as §1, §2, §3

T1 sequence (O00519 whole entry): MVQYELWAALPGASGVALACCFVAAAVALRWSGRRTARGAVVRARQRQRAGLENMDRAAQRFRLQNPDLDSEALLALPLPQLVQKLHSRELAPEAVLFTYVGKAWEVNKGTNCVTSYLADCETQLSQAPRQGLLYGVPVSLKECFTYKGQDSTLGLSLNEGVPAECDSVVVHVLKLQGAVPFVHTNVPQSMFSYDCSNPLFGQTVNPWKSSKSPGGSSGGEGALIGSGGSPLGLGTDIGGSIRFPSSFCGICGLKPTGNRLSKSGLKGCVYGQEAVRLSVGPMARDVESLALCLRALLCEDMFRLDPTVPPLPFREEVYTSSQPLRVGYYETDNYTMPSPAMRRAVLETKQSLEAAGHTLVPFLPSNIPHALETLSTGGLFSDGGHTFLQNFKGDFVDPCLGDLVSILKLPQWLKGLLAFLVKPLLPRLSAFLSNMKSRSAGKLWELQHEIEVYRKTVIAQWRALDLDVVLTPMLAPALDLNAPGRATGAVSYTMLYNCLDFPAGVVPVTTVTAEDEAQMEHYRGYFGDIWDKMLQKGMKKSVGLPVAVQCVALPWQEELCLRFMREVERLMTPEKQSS

IC50 [1] [nM]	IC50 [2] [nM]	SMILES
293	935	C[S+]([O-])c1ccc(-c2nc(C3CCOCC3)oc2Sc2ccc(Cl)cn2)cn1 (stereo not shown) [Example A7.2, 5-chloro-2-({4-[6-(methylsulfinyl)pyridin-3-yl]-2-(tetrahydro-2H-pyran-4-yl)-1,3-oxazol-5-yl}sulfanyl)pyridine]
67.5	771	C[S+]([O-])c1ccc(-c2nc(C3CCN(C(=O)OC(C)(C)C)CC3)oc2Sc2ccc(Cl)cn2)cc1 (stereo not shown) [Example A7.13, tert-butyl 4-{5-[(5-chloropyridin-2-yl)sulfanyl]-4-[4-(methylsulfinyl)phenyl]-1,3-oxazol-2-yl}piperidine-1-carboxylate]
65.3	443	CC(C)(C)OC(=O)N1CCC(c2nc(-c3ccc(S(C)(=O)=O)cc3)c(Sc3ccc(Cl)cn3)o2)CC1 [Example A7.14, tert-butyl 4-{5-[(5-chloropyridin-2-yl)sulfanyl]-4-[4-(methylsulfonyl)phenyl]-1,3-oxazol-2-yl}piperidine-1-carboxylate]
1420	≥ 10000	C[S+]([O-])c1ccc(-c2nc(C3CCNCC3)oc2Sc2ccc(Cl)cn2)cc1 (stereo not shown) [Example A7.15, 4-{5-[(5-Chloropyridin-2-yl)sulfanyl]-4-[4-(methylsulfinyl)phenyl]-1,3-oxazol-2-yl}piperidinium chloride]
925	≥ 10000	CS(=O)(=O)c1ccc(-c2nc(C3CCNCC3)oc2Sc2ccc(Cl)cn2)cc1 [Example A7.16, 5-chloro-2-({4-[4-(methylsulfonyl)phenyl]-2-(piperidin-4-yl)-1,3-oxazol-5-yl}sulfanyl)pyridine]
75.1	547	COC(=O)N1CCC(c2nc(-c3ccc([S+](C)[O-])cc3)c(Sc3ccc(Cl)cn3)o2)CC1 (stereo not shown) [Example A7.17, methyl 4-{5-[(5-chloropyridin-2-yl)sulfanyl]-4-[4-(methylsulfinyl)phenyl]-1,3-oxazol-2-yl}piperidine-1-carboxylate]
839	4420	CC(=O)N1CCC(c2nc(-c3ccc([S+](C)[O-])cc3)c(Sc3ccc(Cl)cn3)o2)CC1 (stereo not shown) [Example A7.18, 1-(4-{5-[(5-Chloropyridin-2-yl)sulfanyl]-4-[4-(methylsulfinyl)phenyl]-1,3-oxazol-2-yl}piperidin-1-yl)ethanone]
287	3280	C[S+]([O-])c1ccc(-c2nc(C3CCN(S(C)(=O)=O)CC3)oc2Sc2ccc(Cl)cn2)cc1 (stereo not shown) [Example A7.19, 5-chloro-2-({4-[4-(methylsulfinyl)phenyl]-2-[1-(methylsulfonyl)piperidin-4-yl]-1,3-oxazol-5-yl}sulfanyl)pyridine]
1700	≥ 10000	CN1CCC(c2nc(-c3ccc([S+](C)[O-])cc3)c(Sc3ccc(Cl)cn3)o2)CC1 (stereo not shown) [Example A7.20, 5-chloro-2-({2-(1-methylpiperidin-4-yl)-4-[4-(methylsulfinyl)phenyl]-1,3-oxazol-5-yl}sulfanyl)pyridine]
25.9	124	C[S+]([O-])c1ccc(-c2nc(C3CCN(C(=O)Oc4ccccc4)CC3)oc2Sc2ccc(Cl)cn2)cc1 (stereo not shown) [Example A7.21, phenyl 4-{5-[(5-chloropyridin-2-yl)sulfanyl]-4-[4-(methylsulfinyl)phenyl]-1,3-oxazol-2-yl}piperidine-1-carboxylate]
45.8	383	CC(C)OC(=O)N1CCC(c2nc(-c3ccc([S+](C)[O-])cc3)c(Sc3ccc(Cl)cn3)o2)CC1 (stereo not shown) [Example A7.22, propan-2-yl 4-{5-[(5-chloropyridin-2-yl)sulfanyl]-4-[4-(methylsulfinyl)phenyl]-1,3-oxazol-2-yl}piperidine-1-carboxylate]
	205	Clc1ccc(Sc2oc(C3CCOCC3)nc2-c2cnc3n2CCC3)cc1 [Example B5.25, 3-{5-[(4-chlorophenyl)sulfanyl]-2-(tetrahydro-2H-pyran-4-yl)-1,3-oxazol-4-yl}-6,7-dihydro-5H-pyrrolo[1,2-a]imidazole]
	506	CN(C(=O)c1ccc(-c2nc(C3CCOCC3)oc2Sc2ccc(Cl)cc2)cc1)C1CCOC1 (stereo not shown) [Example B5.26, 4-{5-[(4-chlorophenyl)sulfanyl]-2-(tetrahydro-2H-pyran-4-yl)-1,3-oxazol-4-yl}-N-methyl-N-(tetrahydrofuran-3-yl)benzamide]
	141	CN1CCN(c2ccc(-c3nc(C4CCOCC4)oc3Sc3ccc(Cl)cc3)cn2)CC1 [Example B5.27, 1-(5-{5-[(4-chlorophenyl)sulfanyl]-2-(tetrahydro-2H-pyran-4-yl)-1,3-oxazol-4-yl}pyridin-2-yl)-4-methylpiperazine]
	≥ 10000	Cc1nnc(-c2cccc(-c3nc(C4CCOCC4)oc3Sc3ccc(Cl)cc3)c2)o1 [Example B5.29, 2-(3-{5-[(4-chlorophenyl)sulfanyl]-2-(tetrahydro-2H-pyran-4-yl)-1,3-oxazol-4-yl}phenyl)-5-methyl-1,3,4-oxadiazole]
	1340	O=C(c1ccc(-c2nc(C3CCOCC3)oc2Sc2ccc(Cl)cc2)cc1)N1CCSC1 [Example B5.31, (4-{5-{(4-chlorophenyl)sulfanyl]-2-(tetrahydro-2H-pyran-4-yl)-1,3-oxazol-4-yl}phenyl)(1,3-thiazolidin-3-yl)methanone]
	9.5	COC(=O)[C@H]1CC[C@H](c2nc(-c3ccc(C(C)(C)O)nc3)c(Sc3ccc(Cl)cc3)o2)CC1 [Example B5.33, methyl trans-4-{5-[(4-chlorophenyl)sulfanyl]-4-[6-(2-hydroxypropan-2-yl)pyridin-3-yl]-1,3-oxazol-2-yl}cyclohexanecarboxylate]
	14.2	COC(=O)[C@H]1CC[C@@H](c2nc(-c3ccc(C(C)(C)O)nc3)c(Sc3ccc(Cl)cc3)o2)CC1 [Example B5.34, methyl cis-4-{5-[(4-chlorophenyl)sulfanyl]-4-[6-(2-hydroxypropan-2-yl)pyridin-3-yl]-1,3-oxazol-2-yl}cyclohexanecarboxylate]
	9.06	CC(C)(O)c1ccc(-c2nc([C@H]3CC[C@H](CO)CC3)oc2Sc2ccc(Cl)cc2)cn1 [Example B5.35, 2-(5-{5-[(4-chlorophenyl)sulfanyl]-2-[trans-4-(hydroxymethyl)cyclohexyl]-1,3-oxazol-4-yl}pyridin-2-yl)propan-2-ol]
	63.8	CC(C)(O)c1ccc(-c2nc([C@H]3CC[C@@H](CO)CC3)oc2Sc2ccc(Cl)cc2)cn1 [Example B5.36, 2-(5-{5-[(4-chlorophenyl)sulfanyl]-2-[cis-4-(hydroxymethyl)cyclohexyl]-1,3-oxazol-4-yl}pyridin-2-yl)propan-2-ol]
	308	CC(O)(CO)c1ccc(-c2nc(C3CCOCC3)oc2Sc2ccc(Cl)cc2)cn1 (stereo not shown) [Example B5.37, 2-(5-{5-[(4-chlorophenyl)sulfanyl]-2-(tetrahydro-2H-pyran-4-yl)-1,3-oxazol-4-yl}pyridin-2-yl)propane-1,2-diol]
	185	CC(C)(O)c1ccc(-c2nc([C@H]3CC[C@H](C(C)(C)O)CC3)oc2Sc2ccc(Cl)cc2)cn1 [Example B5.38, 2-(5-{5-[(4-chlorophenyl)sulfanyl]-2-[trans-4-(2-hydroxypropan-2-yl)cyclohexyl]-1,3-oxazol-4-yl}pyridin-2-yl)propan-2-ol]
	26.2	CCNC(=O)[C@H]1CC[C@H](c2nc(-c3ccc(C(C)(C)O)nc3)c(Sc3ccc(Cl)cc3)o2)CC1 [Example B5.39, trans-4-{5-[(4-chlorophenyl)sulfanyl]-4-[6-(2-hydroxypropan-2-yl)pyridin-3-yl]-1,3-oxazol-2-yl}-N-ethylcyclohexanecarboxamide]
